One block for each compound: values may come before it.
Assays:
[1] = system: LPS induced IL-23 (p19/p40) in DC cells differentiated from human PBMC; assay: IL23-p19 ELISA, dendritic cells (DC differentiated from human PBMC), IFNγ primed, LPS stimulated; assay type: cell-based; details: human PBMC-derived dendritic cells, 1 μg/ml LPS, 18 hours, 10 pt
How it was run: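 Human PBMC-derived DCs (GM-CSF 100 ng/ml + IL-4 20 ng/ml, 7 days) were primed 24 h with IFNγ 50 ng/ml, pre-incubated 1 h with compound, then stimulated 18 h with LPS 1 μg/ml at 37° C. Supernatant IL-23 was measured by sandwich chemiluminescent ELISA (anti-p19 capture, anti-p40 detection); cytotoxicity was checked by CellTiter-Glo.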

[2] = system: LPS induced IL23p19 in THP-1 cells; assay: LPS Induced IL23p19 in THP-1 Cells (with IFNγ Primed) Assay; assay type: cell-based; details: Homo sapiens; THP-1 cells primed with IFNγ 50 ng/mL, 1 μg/mL LPS, 18 hours, 10 pt; read-out: IL23-p19 ELISA, THP1-IFNy, LPS, 10 pt EC50
How it was run: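 THP-1 cells were primed with IFNγ (50 ng/mL, ~18 h), pre-incubated 1 h with compound, then stimulated 18 h with 1 μg/mL LPS at 37° C. Supernatant IL-23p19 was measured by chemiluminescent sandwich ELISA, and EC50 was fitted. Toxicity was checked on the remaining cells with Cell Titer Glo.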

EC50 [2]: 2370 nM
Compound: O=C(Nc1ccc(CCN2CCOCC2)cc1N1CCCCC1)c1csc(-c2cn[nH]c2)n1 [I-56, N-(4-(2-morpholinoethyl)-2-(piperidin-1-yl)phenyl)-2-(1H-pyrazol-4-yl)thiazole-4-carboxamide]
EC50 [1]: 9560 nM

EC50 [2]: 253 nM
Compound: O=C(Nc1cc(C(=O)N2CCOCC2)ccc1N1CCCCC1)c1csc(-c2cn[nH]c2)n1 [I-59, N-(5-(morpholine-4-carbonyl)-2-(piperidin-1-yl)phenyl)-2-(1H-pyrazol-4-yl)thiazole-4-carboxamide]
EC50 [1]: 294 nM

EC50 [2]: 767 nM
Compound: O=C(Nc1cc(CN2CCOCC2)ccc1N1CCCCC1)c1ccc(-c2cn[nH]c2)o1 [I-61, N-(5-(morpholinomethyl)-2-(piperidin-1-yl)phenyl)-5-(1H-pyrazol-4-yl)furan-2-carboxamide]
EC50 [1]: 3840 nM

EC50 [2]: 306 nM
Compound: O=C(Nc1cc(CN2CCOCC2)ccc1N1CCCCC1)c1csc(-c2cn[nH]c2)n1 [I-62, N-(5-(morpholinomethyl)-2-(piperidin-1-yl)phenyl)-2-(1H-pyrazol-4-yl)thiazole-4-carboxamide]
EC50 [1]: 311 nM

EC50 [2]: 195 nM
Compound: O=C(Nc1cc(CC(=O)N2CCOCC2)ccc1N1CCCCC1)c1csc(-c2cn[nH]c2)n1 [I-65, N-(5-(2-morpholino-2-oxoethyl)-2-(piperidin-1-yl)phenyl)-2-(1H-pyrazol-4-yl)thiazole-4-carboxamide]
EC50 [1]: 124 nM

EC50 [2]: 92.4 nM
Compound: O=C(Nc1cc(CCN2CCOCC2)ccc1N1CCCCC1)c1cccc(-c2cn[nH]c2)n1 [I-66, N-(5-(2-morpholinoethyl)-2-(piperidin-1-yl)phenyl)-6-(1H-pyrazol-4-yl)picolinamide]
EC50 [1]: 41.8 nM

EC50 [2]: 307 nM
Compound: O=C(Nc1cc(CCN2CCOCC2)ccc1N1CCCCC1)c1ccc(-c2cn[nH]c2)o1 [I-67, N-(5-(2-morpholinoethyl)-2-(piperidin-1-yl)phenyl)-5-(1H-pyrazol-4-yl)furan-2-carboxamide]
EC50 [1]: 480 nM

EC50 [2]: 62.5 nM
Compound: O=C(Nc1cc(CCN2CCOCC2)ccc1N1CCCCC1)c1csc(-c2cn[nH]c2)n1 [I-68, N-(5-(2-morpholinoethyl)-2-(piperidin-1-yl)phenyl)-2-(1H-pyrazol-4-yl)thiazole-4-carboxamide]
EC50 [1]: 47.6 nM

EC50 [2]: 19300 nM
Compound: CN(CCN1CCOCC1)c1ccc(NC(=O)c2csc(-c3cn[nH]c3)n2)c(N2CCCCC2)c1 [I-71, N-(4-(methyl(2-morpholinoethyl)amino)-2-(piperidin-1-yl)phenyl)-2-(1H-pyrazol-4-yl)thiazole-4-carboxamide]
EC50 [1]: 2280 nM

EC50 [2]: 51.4 nM
Compound: O=C(Nc1ccc(NCCN2CCOCC2)cc1N1CCCCC1)c1csc(-c2cn[nH]c2)n1 [I-74, N-(4-((2-morpholinoethyl)amino)-2-(piperidin-1-yl)phenyl)-2-(1H-pyrazol-4-yl)thiazole-4-carboxamide]
EC50 [1]: 104 nM

Further lines, the compound ahead of its results:

Compound: O=C(Nc1ccc(CCN2CCOCC2)cc1N1CCCCC1)c1cccc(-c2cn[nH]c2)n1 [I-54, N-(4-(2-morpholinoethyl)-2-(piperidin-1-yl)phenyl)-6-(1H-pyrazol-4-yl)picolinamide]
EC50 [1]: 163 nM
EC50 [2]: 93 nM

Compound: O=C(Nc1cc(C(=O)N2CCOCC2)ccc1N1CCCCC1)c1cccc(-c2cn[nH]c2)n1 [I-57, N-(5-(morpholine-4-carbonyl)-2-(piperidin-1-yl)phenyl)-6-(1H-pyrazol-4-yl)picolinamide]
EC50 [1]: 1150 nM
EC50 [2]: 498 nM

Compound: O=C(Nc1cc(C(=O)N2CCOCC2)ccc1N1CCCCC1)c1ccc(-c2cn[nH]c2)o1 [I-58, N-(5-(morpholine-4-carbonyl)-2-(piperidin-1-yl)phenyl)-5-(1H-pyrazol-4-yl)furan-2-carboxamide]
EC50 [1]: 5600 nM
EC50 [2]: 1500 nM

Compound: O=C(Nc1cc(CC(=O)N2CCOCC2)ccc1N1CCCCC1)c1cccc(-c2cn[nH]c2)n1 [I-63, N-(5-(2-morpholino-2-oxoethyl)-2-(piperidin-1-yl)phenyl)-6-(1H-pyrazol-4-yl)picolinamide]
EC50 [1]: 160 nM
EC50 [2]: 150 nM

Compound: O=C(Nc1cc(CC(=O)N2CCOCC2)ccc1N1CCCCC1)c1ccc(-c2cn[nH]c2)o1 [I-64, N-(5-(2-morpholino-2-oxoethyl)-2-(piperidin-1-yl)phenyl)-5-(1H-pyrazol-4-yl)furan-2-carboxamide]
EC50 [1]: 1320 nM
EC50 [2]: 3680 nM

Compound: CN(CCN1CCOCC1)c1ccc(NC(=O)c2cccc(-c3cn[nH]c3)n2)c(N2CCCCC2)c1 [I-69, N-(4-(methyl(2-morpholinoethyl)amino)-2-(piperidin-1-yl)phenyl)-6-(1H-pyrazol-4-yl)picolinamide]
EC50 [1]: 2820 nM
EC50 [2]: 2630 nM

Compound: CN(CCN1CCOCC1)c1ccc(NC(=O)c2ccc(-c3cn[nH]c3)o2)c(N2CCCCC2)c1 [I-70, N-(4-(methyl(2-morpholinoethyl)amino)-2-(piperidin-1-yl)phenyl)-5-(1H-pyrazol-4-yl)furan-2-carboxamide]
EC50 [1]: 1920 nM
EC50 [2]: 1440 nM

Compound: O=C(Nc1ccc(NCCN2CCOCC2)cc1N1CCCCC1)c1cccc(-c2cn[nH]c2)n1 [I-72, N-(4-((2-morpholinoethyl)amino)-2-(piperidin-1-yl)phenyl)-6-(1H-pyrazol-4-yl)picolinamide]
EC50 [1]: 1840 nM
EC50 [2]: 870 nM

Compound: O=C(Nc1ccc(NCCN2CCOCC2)cc1N1CCCCC1)c1ccc(-c2cn[nH]c2)o1 [I-73, N-(4-((2-morpholinoethyl)amino)-2-(piperidin-1-yl)phenyl)-5-(1H-pyrazol-4-yl)furan-2-carboxamide]
EC50 [1]: 175 nM
EC50 [2]: 82.7 nM

Reference: patent publication US10590121B2, “Kinase inhibitors and methods for making and using” (Rigel Pharmaceuticals, Inc., priority 2017, dated 2020)
